From paper PMC8480759, “Inhibitors of histone deacetylase 6 based on a novel 3-hydroxy-isoxazole zinc binding group” (Journal of Enzyme Inhibition and Medicinal Chemistry, 2021)

Assays:
HDAC6 [1] = biological target: T1, HDAC6 (Homo sapiens, UniProt Q9UBN7); experiment: In vitro HDAC6 fluorogenic enzymatic assay; assay type: biochemical; design: purchased BPS Bioscience #50076 (Fluorogenic Assay Kit); settings: recombinant human HDAC6; dose-response 300 µM to 135 nM
T1 sequence (Q9UBN7 1-1215): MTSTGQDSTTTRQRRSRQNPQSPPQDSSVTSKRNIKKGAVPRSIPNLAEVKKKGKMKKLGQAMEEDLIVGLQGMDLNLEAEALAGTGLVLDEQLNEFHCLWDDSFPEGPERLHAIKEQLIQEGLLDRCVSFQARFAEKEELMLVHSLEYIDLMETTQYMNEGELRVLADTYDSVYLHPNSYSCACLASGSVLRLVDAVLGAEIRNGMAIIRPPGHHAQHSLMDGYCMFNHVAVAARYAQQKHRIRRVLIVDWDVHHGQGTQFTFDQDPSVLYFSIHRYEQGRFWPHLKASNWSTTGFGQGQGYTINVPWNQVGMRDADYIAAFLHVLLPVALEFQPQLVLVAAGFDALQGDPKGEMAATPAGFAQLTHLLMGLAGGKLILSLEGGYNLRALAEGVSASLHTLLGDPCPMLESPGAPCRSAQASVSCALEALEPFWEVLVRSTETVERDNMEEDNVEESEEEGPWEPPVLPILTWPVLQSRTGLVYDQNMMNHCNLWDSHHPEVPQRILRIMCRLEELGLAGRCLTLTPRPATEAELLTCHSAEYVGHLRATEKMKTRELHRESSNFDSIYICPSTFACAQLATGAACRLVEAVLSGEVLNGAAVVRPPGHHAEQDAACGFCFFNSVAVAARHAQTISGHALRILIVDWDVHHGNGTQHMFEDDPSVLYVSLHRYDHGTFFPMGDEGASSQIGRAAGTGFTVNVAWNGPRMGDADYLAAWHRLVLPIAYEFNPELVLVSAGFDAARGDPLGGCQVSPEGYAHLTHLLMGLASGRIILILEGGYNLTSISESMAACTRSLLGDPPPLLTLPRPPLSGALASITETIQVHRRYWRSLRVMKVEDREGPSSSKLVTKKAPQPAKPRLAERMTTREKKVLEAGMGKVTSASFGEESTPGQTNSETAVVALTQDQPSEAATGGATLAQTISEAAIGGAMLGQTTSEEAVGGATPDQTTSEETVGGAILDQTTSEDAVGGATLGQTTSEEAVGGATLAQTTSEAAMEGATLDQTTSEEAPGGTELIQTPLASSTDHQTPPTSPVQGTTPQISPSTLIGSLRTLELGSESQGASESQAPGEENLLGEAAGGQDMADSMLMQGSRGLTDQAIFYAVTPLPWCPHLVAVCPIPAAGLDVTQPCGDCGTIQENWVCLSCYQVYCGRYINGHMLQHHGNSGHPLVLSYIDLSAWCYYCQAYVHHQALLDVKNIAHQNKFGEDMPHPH

DU145 cells = experiment: Anti-proliferative assay (MTT cell viability); assay type: cell-based, human; settings: for effect on proliferation rate of DU145 cells: 50 µM, MTT, 24, 48, 72 h; for anti-proliferative activity at the lowest concentrations: DU145, late phases, lowest concentrations (tested 1, 5, 10, 50 µM)
Procedure: The results corroborate the inhibitory activity of 17, 23, 25 and 27 at concentrations lower than 10 µM. […] HDACs contribution to CRPC is known[20] and the possibility to arrest CRPC proliferation by acting on HDAC targets is expanding in the scientific literature[21]^,[22]. After administration of the selected compounds for 24 h at 10 µM concentration, the effect on the acetylation levels of histone H3 and α-tubulin (respectively, HDAC1 and HDAC6 targets) was investigated. […] Lastly, in the same cell line, the anti-proliferative effect was measured in dose and time dependent manner (Figure S4).
Figure S4. Cell viability assay (MTT) of the tested compounds in human prostate cancer cell lines (DU145). Cells were treated with 4 increasing concentrations (1, 5, 10, and 50 µM) of tested compounds, monitored at 24, 48, and 72 hours and tested with SAHA and Tubastatin A as reference compounds. Data are expressed as mean ± SEM. […]
1.5 Anti-proliferative assay
Cell viability was determined on DU145 cell line using Thiazolyl Blue Tetrazolium Bromide [3-(4,5-dimethylthiazol-2-yl)-2,5-diphenyltetrazolium bromide] (MTT; Sigma-Aldrich) assay after treatment with new compounds at indicated concentrations. A total of 2 × 10^4 cells/well were plated in a 96-well plate and treated, in duplicates, with new compounds at different concentrations for 24, 48, and 72 hours. Absorbance was read at a wavelength of 570 nm with a TECAN M-200 reader (Tecan, Männedorf, Switzerland).

HDAC6 [2] = biological target: T1, HDAC6; experiment: HDAC6 assay with acetylated p53 peptide (residues 379–382, RHKKAc-AMC) as substrate; assay type: biochemical

With Oc1cc(-c2ccc(NCc3ccccc3)cc2)on1 [Compound 23] the IC50 (HDAC6 [1]) was 700 nM, the “effect on proliferation rate of DU145 cells” value (DU145 cells) was “reduced the proliferation rate” and the “anti-proliferative activity at the lowest concentrations” value (DU145 cells) was “exerted anti-proliferative activity”. The “concentration showing inhibitory activity on HDAC6” value (HDAC6 [2]) was “below 10 µM”.

Oc1cc(-c2ccc3c(c2)OCO3)on1 [Compound 25] was tested, and the IC50 (HDAC6 [1]) was 1500 nM, the “effect on proliferation rate of DU145 cells” value (DU145 cells) was “reduced the proliferation rate” and the “anti-proliferative activity at the lowest concentrations” value (DU145 cells) was “exerted anti-proliferative activity”. The “concentration showing inhibitory activity on HDAC6” value (HDAC6 [2]) was “below 10 µM”.
